Experimental findings from patent US8735414B2 (priority 2009, dated 2014) are described below.

SMILES strings stand for the structures.

Data set [1] has as its system bicistronic HCV replicon (replicon RNA, GenBank Accession No. AJ242654). The data set can be described thus: HCV Replicon Assay. It counts as cell-based. Particulars: Hepatitis C virus, 72 h, read-out: Replicon IC50. For orientation: A replicon is a self-replicating genome or part of one, used to study replication in cells.

The IC50 is the concentration needed to halve the response being measured. What is called melting point is the temperature, or range, at which the solid turns liquid. As for `CC(C)S(=O)(=O)Nc1ccc(-c2c(C#N)c3ccc(OCC(F)(F)F)cc3n2CC2CC2)nc1` [compound 283, N-{6-[3-cyano-1-(cyclopropylmethyl)-6-(2,2,2-trifluoroethoxy)-1H-indol-2-yl]pyridin-3-yl}propane-2-sulfonamide], the melting point lay in the range of 188 to 193 °C. The IC50 in data set [1] was 2 to 5 µM.
For `C[C@H](NS(=O)(=O)c1ccc(-c2c(C#N)c3ccc(CC(F)F)cc3n2C2CCC2)nc1)C(F)(F)F` [compound 384, 6-[3-cyano-1-cyclobutyl-6-(2,2-difluoroethyl)-1H-indol-2-yl]-N-[(2S)-1,1,1-trifluoropropan-2-yl]pyridine-3-sulfonamide], the melting point was in the range of 172 to 174 °C. Besides, the IC50 in data set [1] is below 0.5 µM.
In the same order, the values of `Cc1cc2c(cc1F)c(C#N)c(-c1ccc(S(=O)(=O)NC(C)(C)C(F)(F)F)cn1)n2C1CCCCC1` [compound 705, 6-(3-cyano-1-cyclohexyl-5-fluoro-6-methyl-1H-indol-2-yl)-N-(1,1,1-trifluoro-2-methylpropan-2-yl)pyridine-3-sulfonamide] are 248 to 254 °C and below 0.5 µM.
Molecule `COc1cc2c(C#N)c(-c3ccc(S(=O)(=O)N[C@@H](C)C(F)(F)F)cn3)n(C3CCC3)c2cc1C` [compound 757, 6-(3-cyano-1-cyclobutyl-5-methoxy-6-methyl-1H-indol-2-yl)-N-[(2S)-1,1,1-trifluoropropan-2-yl]pyridine-3-sulfonamide] had a melting point of 222 to 223 °C. Besides, the half-inhibitory concentration (IC50) in data set [1] lay in the range of 0.5 to 2 µM.
In the same order, the values of `C[C@H](NS(=O)(=O)c1cnc(-c2c(C#N)c3ccc(CC(F)F)cc3n2C2CCCC2)nc1)C(F)(F)F` [compound 600, 2-[3-cyano-1-cyclopentyl-6-(2,2-difluoroethyl)-1H-indol-2-yl]-N-[(2S)-1,1,1-trifluoropropan-2-yl]pyrimidine-5-sulfonamide] are 240 to 246 °C and below 0.5 µM.
The matching figures for `C[C@H](NS(=O)(=O)c1cnc(-c2c(C#N)c3ccc(C4CC4)cc3n2C2CCCC2)nc1)C1CC1` [compound 254, 2-(3-cyano-1-cyclopentyl-6-cyclopropyl-1H-indol-2-yl)-N-[(1S)-1-cyclopropylethyl]pyrimidine-5-sulfonamide]: 185 to 189 °C and 0.5 to 2 µM.
The matching figures for `CC(NS(=O)(=O)c1ccc(-c2c(C#N)c3ccc(C4CC4)cc3n2C2CCCC2)nc1)C(F)(F)F` (stereo not drawn) [compound 86, 6-(3-cyano-1-cyclopentyl-6-cyclopropyl-1H-indol-2-yl)-N-(1,1,1-trifluoropropan-2-yl)pyridine-3-sulfonamide]: 166 to 170 °C and below 0.5 µM.
For the molecule `Cc1ccc2c(c1)c(C#N)c(-c1ncc(S(=O)(=O)NC(C)C)cn1)n2C1CCCCC1` [compound 200, 2-(3-cyano-1-cyclohexyl-5-methyl-1H-indol-2-yl)-N-(propan-2-yl)pyrimidine-5-sulfonamide], the melting point was 183 to 188 °C. In addition, the IC50 in data set [1] lay in the range of 0.5 to 2 µM.
In the same order, the values of `CCc1cc2c(cc1F)c(C(N)=O)c(-c1ccc(S(=O)(=O)N[C@@H](C)C(F)(F)F)cn1)n2-c1cccc(Cl)c1` [compound 1027, 1-(3-chlorophenyl)-6-ethyl-5-fluoro-2-(5-{[(2S)-1,1,1-trifluoropropan-2-yl]sulfamoyl}pyridin-2-yl)-1H-indole-3-carboxamide] are 200 to 205 °C and below 0.5 µM.
Molecule `N#Cc1c(-c2ncc(S(=O)(=O)NC(CF)CF)cn2)n(C2CCC2)c2cc(C3CCC3)ccc12` [compound 264, 2-(3-cyano-1,6-dicyclobutyl-1H-indol-2-yl)-N-(1,3-difluoropropan-2-yl)pyrimidine-5-sulfonamide] had a melting point of 184 to 188 °C. In addition, the half-inhibitory concentration (IC50) in data set [1] lay in the range of 0.5 to 2 µM.
`CCc1cc2c(cc1F)c(C(N)=O)c(-c1cnc(NS(=O)(=O)C(C)(C)C)nc1)n2C1CCCCC1` [compound 1036, 2-{2-[(tert-butylsulfonyl)amino]pyrimidin-5-yl}-1-cyclohexyl-6-ethyl-5-fluoro-1H-indole-3-carboxamide] displayed a melting point above 300 °C. Further, the concentration for half-maximal inhibition (IC50) in data set [1] is 2 to 5 µM.
The matching figures for `Cc1cc2c(C#N)c(-c3ncc(S(=O)(=O)NC(C)C)cn3)n(C3CCC3)c2cc1Cl` [compound 507, 2-(6-chloro-3-cyano-1-cyclobutyl-5-methyl-1H-indol-2-yl)-N-(propan-2-yl)pyrimidine-5-sulfonamide]: 217 to 218 °C and 0.5 to 2 µM.
In the same order, the values of `Cc1ccc2c(c1)c(C#N)c(-c1ncc(S(=O)(=O)N[C@@H](C)C3CC3)cn1)n2CC1CC1` [compound 561, 2-[3-cyano-1-(cyclopropylmethyl)-5-methyl-1H-indol-2-yl]-N-[(1S)-1-cyclopropylethyl]pyrimidine-5-sulfonamide] are 174 to 178 °C and 0.5 to 2 µM.
The matching figures for `CCS(=O)(=O)Nc1ccc(-c2c(C#N)c3ccc(OC)cc3n2C2CCC2)nn1` [compound 277, N-[6-(3-cyano-1-cyclobutyl-6-methoxy-1H-indol-2-yl)pyridazin-3-yl]ethanesulfonamide]: 212 to 214 °C and below 0.5 µM.
The molecule `Cc1ccc2c(C#N)c(-c3ccc(NS(=O)(=O)C4CC4)cn3)n(C3CCC3)c2c1` [compound 297, N-[6-(3-cyano-1-cyclobutyl-6-methyl-1H-indol-2-yl)pyridin-3-yl]cyclopropanesulfonamide] gave a melting point of 200 to 205 °C. For the same molecule, in data set [1], the 50% inhibitory concentration (IC50) fell in the range of 0.5 to 2 µM.
`N#Cc1c(-c2ncc(S(=O)(=O)NC(CF)CF)cn2)n(C2CCC2)c2ccc(F)cc12` [compound 452, 2-(3-cyano-1-cyclobutyl-5-fluoro-1H-indol-2-yl)-N-(1,3-difluoropropan-2-yl)pyrimidine-5-sulfonamide] displayed a melting point of 175 to 180 °C. Also, in data set [1], the IC50 is below 0.5 µM.
In the same order, the values of `N#Cc1c(-c2ccc(S(=O)(=O)NC(CF)CF)cn2)n(C2CCC2)c2ccc(OC(F)F)cc12` [compound 32, 6-[3-cyano-1-cyclobutyl-5-(difluoromethoxy)-1H-indol-2-yl]-N-(1,3-difluoropropan-2-yl)pyridine-3-sulfonamide] are 166 to 172 °C and below 0.5 µM.
For `C[C@H](NS(=O)(=O)c1ccc(-c2c(C#N)c3ccc(C(F)(F)F)cc3n2-c2ccccn2)nc1)C(F)(F)F` [compound 952, 6-[3-cyano-1-(pyridin-2-yl)-6-(trifluoromethyl)-1H-indol-2-yl]-N-[(2S)-1,1,1-trifluoropropan-2-yl]pyridine-3-sulfonamide], the melting point lay within 173 to 176 °C. Moreover, in data set [1], the IC50 is below 0.5 µM.
In the same order, the values of `Cc1c(F)cc2c(c1F)c(C#N)c(-c1ccc(S(=O)(=O)N[C@@H](C)C(F)(F)F)cn1)n2C1CCC1` [compound 555, 6-(3-cyano-1-cyclobutyl-4,6-difluoro-5-methyl-1H-indol-2-yl)-N-[(2S)-1,1,1-trifluoropropan-2-yl]pyridine-3-sulfonamide] are 181 to 186 °C and below 0.5 µM.
In the same order, the values of `C[C@H](NS(=O)(=O)c1ccc(-c2c(C#N)c3ccc(C(F)(F)F)cc3n2-c2cnccn2)nc1)C(F)(F)F` [compound 951, 6-[3-cyano-1-(pyrazin-2-yl)-6-(trifluoromethyl)-1H-indol-2-yl]-N-[(2S)-1,1,1-trifluoropropan-2-yl]pyridine-3-sulfonamide] are 208 to 213 °C and below 0.5 µM.
As to `CCc1cc(F)c2c(C(N)=O)c(-c3ccc(NS(=O)(=O)C(C)(C)C)nc3)n(C3CCC3)c2c1` [compound 1118, 2-{6-[(tert-butylsulfonyl)amino]pyridin-3-yl}-1-cyclobutyl-6-ethyl-4-fluoro-1H-indole-3-carboxamide], the melting point lay in the range of 263 to 268 °C. In data set [1], the IC50 is below 0.5 µM.
Turning to `CC(C)(C)S(=O)(=O)Nc1ccc(-c2c(C(N)=O)c3cc(F)c(C4CC4)cc3n2-c2ccccc2)cn1` [compound 1100, 2-{6-[(tert-butylsulfonyl)amino]pyridin-3-yl}-6-cyclopropyl-5-fluoro-1-phenyl-1H-indole-3-carboxamide], the melting point is 272 to 274 °C. For the same molecule, the IC50 in data set [1] was below 0.5 µM.
In the same order, the values of `CC(C)NS(=O)(=O)c1cnc(-c2c(C(N)=O)c3ccc(OC(F)(F)F)cc3n2C2CCCC2)nc1` [compound 782, 1-cyclopentyl-2-[5-(propan-2-ylsulfamoyl)pyrimidin-2-yl]-6-(trifluoromethoxy)-1H-indole-3-carboxamide] are 238 to 241 °C and below 0.5 µM.
In the same order, the values of `Cc1ccc2c(c1)c(C#N)c(-c1ncc(S(=O)(=O)N[C@@H](C)C(F)(F)F)cn1)n2C1CCCCC1` [compound 390, 2-(3-cyano-1-cyclohexyl-5-methyl-1H-indol-2-yl)-N-[(2S)-1,1,1-trifluoropropan-2-yl]pyrimidine-5-sulfonamide] are 218 to 223 °C and 0.5 to 2 µM.
In the same order, the values of `Cc1ccc2c(C#N)c(-c3ccc(S(=O)(=O)N[C@H](C)C(F)(F)F)cn3)n(-c3ncccn3)c2c1` [compound 688, 6-[3-cyano-6-methyl-1-(pyrimidin-2-yl)-1H-indol-2-yl]-N-[(2R)-1,1,1-trifluoropropan-2-yl]pyridine-3-sulfonamide] are 196 to 198 °C and below 0.5 µM.
`C[C@H](NS(=O)(=O)c1ccc(-c2c(C(N)=O)c3c(F)cc(OC(F)F)cc3n2C2CCC2)nc1)C(F)(F)F` [compound 825, 1-cyclobutyl-6-(difluoromethoxy)-4-fluoro-2-(5-{[(2S)-1,1,1-trifluoropropan-2-yl]sulfamoyl}pyridin-2-yl)-1H-indole-3-carboxamide] gave a melting point of 254 to 256 °C. Besides, in data set [1], the IC50 was below 0.5 µM.
Consider `C[C@H](NS(=O)(=O)c1ccc(-c2c(C#N)c3cc(F)ccc3n2C2CCCC2)nc1)C1CC1` [compound 143, 6-(3-cyano-1-cyclopentyl-5-fluoro-1H-indol-2-yl)-N-[(1S)-1-cyclopropylethyl]pyridine-3-sulfonamide], for which the melting point was in the range of 159 to 160 °C. Also, the IC50 in data set [1] is below 0.5 µM.
